Assay results: PubChem BioAssay (NCI)
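Test compounds were applied to cells in 96-well plates for 48 hours at 5 doses. GI50 = concentration required for 50% inhibition of growth. The concentration for full growth arrest is given as TGI.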

Legend:
Assay in all cases: NCI anticancer screen, dose series, 48 h
SN12C renal = test system: SN12C renal
MALME-3M melanoma = test system: MALME-3M melanoma
CAKI-1 renal = test system: CAKI-1 renal
SNB-19 CNS = test system: SNB-19 CNS
SNB-75 CNS = test system: SNB-75 CNS
HT29 colon = test system: HT29 colon
K-562 leukemia = test system: K-562 leukemia
SK-MEL-5 melanoma = test system: SK-MEL-5 melanoma
T-47D breast = test system: T-47D breast
SK-MEL-28 melanoma = test system: SK-MEL-28 melanoma
OVCAR-5 ovarian = test system: OVCAR-5 ovarian
RPMI-8226 leukemia = test system: RPMI-8226 leukemia
MDA-MB-468 breast = test system: MDA-MB-468 breast
M14 melanoma = test system: M14 melanoma
HCC-2998 colon = test system: HCC-2998 colon
RXF 393 renal = test system: RXF 393 renal
OVCAR-8 ovarian = test system: OVCAR-8 ovarian
SK-OV-3 ovarian = test system: SK-OV-3 ovarian
HCT-116 colon = test system: HCT-116 colon
OVCAR-3 ovarian = test system: OVCAR-3 ovarian
EKVX NSCLC = test system: EKVX NSCLC
HOP-62 NSCLC = test system: HOP-62 NSCLC
NCI-H522 lung = test system: NCI-H522 lung
OVCAR-4 ovarian = test system: OVCAR-4 ovarian
A549 NSCLC = test system: A549 NSCLC
NCI/ADR-RES ovarian = test system: NCI/ADR-RES ovarian
DU-145 prostate = test system: DU-145 prostate
U251 CNS = test system: U251 CNS
SF-268 CNS = test system: SF-268 CNS
COLO 205 colon = test system: COLO 205 colon
SF-539 CNS = test system: SF-539 CNS
TK-10 renal = test system: TK-10 renal
SW-620 colon = test system: SW-620 colon
UACC-257 melanoma = test system: UACC-257 melanoma
SK-MEL-2 melanoma = test system: SK-MEL-2 melanoma
NCI-H460 lung = test system: NCI-H460 lung
UACC-62 melanoma = test system: UACC-62 melanoma
CCRF-CEM leukemia = test system: CCRF-CEM leukemia
SF-295 CNS = test system: SF-295 CNS
HOP-92 NSCLC = test system: HOP-92 NSCLC
ACHN renal = test system: ACHN renal
PC-3 prostate = test system: PC-3 prostate
NCI-H226 lung = test system: NCI-H226 lung
MOLT-4 leukemia = test system: MOLT-4 leukemia
MDA-MB-231 breast = test system: MDA-MB-231 breast
786-0 renal = test system: 786-0 renal
SR leukemia = test system: SR leukemia
A498 renal = test system: A498 renal
HCT-15 colon = test system: HCT-15 colon
HL-60(TB) leukemia = test system: HL-60(TB) leukemia
NCI-H23 lung = test system: NCI-H23 lung
IGROV1 ovarian = test system: IGROV1 ovarian
KM12 colon = test system: KM12 colon
BT-549 breast = test system: BT-549 breast
LOX IMVI melanoma = test system: LOX IMVI melanoma
UO-31 renal = test system: UO-31 renal
MDA-MB-435 = test system: MDA-MB-435
MCF7 breast = test system: MCF7 breast
HS 578T breast = test system: HS 578T breast

`Cc1ccc(O)cc1Nc1nc(SCCN2CCOCC2)nc2c1cnn2CC(Cl)c1ccc(Br)cc1` (stereo not drawn) was tested, and the GI50 (SN12C renal) was 2.12 µM, the TGI (SN12C renal) was 13.3 µM and the GI50 (MALME-3M melanoma) was 3.71 µM. For the same molecule, the TGI (MALME-3M melanoma) was 16.6 µM, the GI50 (CAKI-1 renal) was 3.53 µM and the TGI (CAKI-1 renal) was 33.1 µM. It also gave a GI50 (SNB-19 CNS) of 5.93 µM, a TGI (SNB-19 CNS) of 43.4 µM and a GI50 (SNB-75 CNS) of 1.24 µM. It also gave a TGI (SNB-75 CNS) of 5.11 µM, a GI50 (HT29 colon) of 3.36 µM and a TGI (HT29 colon) of 13.6 µM. The GI50 (K-562 leukemia) was 0.0575 µM, the TGI (K-562 leukemia) was 2.73 µM and the GI50 (SK-MEL-5 melanoma) was 4.17 µM. For the same molecule, the TGI (SK-MEL-5 melanoma) was 15.9 µM, the GI50 (T-47D breast) was 2.14 µM and the TGI (T-47D breast) was greater than 100 µM. It also gave a GI50 (SK-MEL-28 melanoma) of 4.21 µM, a TGI (SK-MEL-28 melanoma) of 17.4 µM and a GI50 (OVCAR-5 ovarian) of 3.96 µM. It also gave a TGI (OVCAR-5 ovarian) of 18.9 µM, a GI50 (RPMI-8226 leukemia) of 4.37 µM and a TGI (RPMI-8226 leukemia) of 28.4 µM. For the same molecule, the GI50 (MDA-MB-468 breast) was 1.84 µM, the TGI (MDA-MB-468 breast) was 4.69 µM and the GI50 (M14 melanoma) was 2.85 µM. The TGI (M14 melanoma) was 15.2 µM, the GI50 (HCC-2998 colon) was 3.93 µM and the TGI (HCC-2998 colon) was 15.2 µM. The GI50 (RXF 393 renal) was 0.282 µM, the TGI (RXF 393 renal) was 3.71 µM and the GI50 (OVCAR-8 ovarian) was 4.45 µM. It also gave a TGI (OVCAR-8 ovarian) of 21.2 µM, a GI50 (SK-OV-3 ovarian) of 13.6 µM and a TGI (SK-OV-3 ovarian) of 73.4 µM. For the same molecule, the GI50 (HCT-116 colon) was 3.46 µM, the TGI (HCT-116 colon) was 13.3 µM and the GI50 (OVCAR-3 ovarian) was 11 µM. It also gave a TGI (OVCAR-3 ovarian) of 64.9 µM, a GI50 (EKVX NSCLC) of 3.93 µM and a TGI (EKVX NSCLC) of 60.4 µM. It also gave a GI50 (HOP-62 NSCLC) of 4.41 µM, a TGI (HOP-62 NSCLC) of 30.2 µM and a GI50 (NCI-H522 lung) of 2.87 µM. It also gave a TGI (NCI-H522 lung) of 16.5 µM, a GI50 (OVCAR-4 ovarian) of 6.84 µM and a TGI (OVCAR-4 ovarian) greater than 100 µM. It also gave a GI50 (A549 NSCLC) of 3.18 µM, a TGI (A549 NSCLC) of 18.5 µM and a GI50 (NCI/ADR-RES ovarian) of 3.13 µM. It also gave a TGI (NCI/ADR-RES ovarian) of 17.3 µM, a GI50 (DU-145 prostate) of 8.92 µM and a TGI (DU-145 prostate) greater than 100 µM. The GI50 (U251 CNS) was 4.85 µM, the TGI (U251 CNS) was 17.9 µM and the GI50 (SF-268 CNS) was 7.04 µM. The TGI (SF-268 CNS) was greater than 100 µM, the GI50 (COLO 205 colon) was 17.6 µM and the TGI (COLO 205 colon) was 42.2 µM. The GI50 (SF-539 CNS) was 3.05 µM, the TGI (SF-539 CNS) was 13.9 µM and the GI50 (TK-10 renal) was 15.8 µM. It also gave a TGI (TK-10 renal) of 32.3 µM, a GI50 (SW-620 colon) of 14.6 µM and a TGI (SW-620 colon) of 78.1 µM. For the same molecule, the GI50 (UACC-257 melanoma) was 9.87 µM, the TGI (UACC-257 melanoma) was 24.7 µM and the GI50 (SK-MEL-2 melanoma) was 11.2 µM. The TGI (SK-MEL-2 melanoma) was 24.5 µM, the GI50 (NCI-H460 lung) was 4.26 µM and the TGI (NCI-H460 lung) was 21.8 µM. It also gave a GI50 (UACC-62 melanoma) of 3.05 µM, a TGI (UACC-62 melanoma) of 15.5 µM and a GI50 (CCRF-CEM leukemia) of 4.03 µM. The TGI (CCRF-CEM leukemia) was 39.1 µM, the GI50 (SF-295 CNS) was 2.36 µM and the TGI (SF-295 CNS) was 12 µM. For the same molecule, the GI50 (HOP-92 NSCLC) was 2.06 µM, the TGI (HOP-92 NSCLC) was 8.12 µM and the GI50 (ACHN renal) was 2.21 µM. It also gave a TGI (ACHN renal) of 15.4 µM, a GI50 (PC-3 prostate) of 4.98 µM and a TGI (PC-3 prostate) of 46.1 µM. It also gave a GI50 (NCI-H226 lung) of 3.39 µM, a TGI (NCI-H226 lung) of 20.4 µM and a GI50 (MOLT-4 leukemia) of 2.65 µM. The TGI (MOLT-4 leukemia) was 14.5 µM, the GI50 (MDA-MB-231 breast) was 2.5 µM and the TGI (MDA-MB-231 breast) was 14.3 µM. The GI50 (786-0 renal) was 6.22 µM, the TGI (786-0 renal) was 25.4 µM and the GI50 (SR leukemia) was 2.34 µM. For the same molecule, the TGI (SR leukemia) was 17.5 µM, the GI50 (A498 renal) was 6.88 µM and the TGI (A498 renal) was 21.7 µM. The GI50 (HCT-15 colon) was 2.82 µM, the TGI (HCT-15 colon) was 15.8 µM and the GI50 (HL-60(TB) leukemia) was 5.18 µM. It also gave a TGI (HL-60(TB) leukemia) of 28.4 µM, a GI50 (NCI-H23 lung) of 6.21 µM and a TGI (NCI-H23 lung) of 19.5 µM. The GI50 (IGROV1 ovarian) was 2.06 µM, the TGI (IGROV1 ovarian) was 6.08 µM and the GI50 (KM12 colon) was 7.55 µM. The TGI (KM12 colon) was 29.8 µM, the GI50 (BT-549 breast) was 10.1 µM and the TGI (BT-549 breast) was 23.2 µM. It also gave a GI50 (LOX IMVI melanoma) of 1.52 µM, a TGI (LOX IMVI melanoma) of 3.49 µM and a GI50 (UO-31 renal) of 2.25 µM. For the same molecule, the TGI (UO-31 renal) was 31.5 µM, the GI50 (MDA-MB-435) was 4.72 µM and the TGI (MDA-MB-435) was 21.5 µM. For the same molecule, the GI50 (MCF7 breast) was 3.4 µM, the TGI (MCF7 breast) was 17.3 µM and the GI50 (HS 578T breast) was 0.832 µM. For the same molecule, the TGI (HS 578T breast) was 5.67 µM.
